Test system: HCV replicon
Test: HCV replicon replication assay (NPT ELISA) in Huh-7 replicon-containing cells
Assay type: cell-based
Settings: Hepatitis C virus, 72 h; HCV replicon in Huh-7 cells, three days incubation; read-out: EC50
Procedure, shortened: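 Replication was scored by capture ELISA of neomycin phosphotransferase, whose level tracks replicon replication, after graded compound treatment. The cells were Huh-7 harbouring an HCV-IRES/neo/EMCV-IRES/NS3–NS5B/3′-NTR replicon, plated at 6000-7500 cells/well and dosed 24 h later at 60-70% confluence; interferon alpha was the positive control.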

| SMILES | EC50 |
| --- | --- |
| C=C[C@@H]1C[C@]1(NC(=O)[C@@H]1C[C@@H](Oc2cc(-c3ccccc3)nc3cc(OC)ccc23)CN1C(=O)[C@@H](CC(=O)N1CCC(F)CC1)C(C)(C)C)C(=O)NS(=O)(=O)C1CC1 [Compound 82, (2S,4R)-1-((S)-2-tert-butyl-4-(4-fluoropiperidin-1-yl)-4-oxobutanoyl)-N-((1R,2S)-1-(cyclopropyl-sulfonylcarbamoyl)-2-vinylcyclopropyl)-4-(7-methoxy-2-phenylquinolin-4-yloxy)pyrrolidine-2-carboxamide] | < 1000 nM |
| C=C[C@@H]1C[C@]1(NC(=O)[C@@H]1C[C@@H](NC(=O)c2cc(-c3ccccc3)nc3ccccc23)CN1C(=O)[C@@H](CC(=O)N1CCCCC1)C(C)(C)C)C(=O)NS(=O)(=O)C1CC1 [Compound 171, N-((3R,5S)-1-((S)-2-tert-butyl-4-oxo-4-(piperidin-1-yl)butanoyl)-5-((1R,2S)-1-(cyclopropyl-sulfonylcarbamoyl)-2-vinylcyclo-propylcarbamo-yl)pyrrolidin-3-yl)-2-phenylquinoline-4-carboxamide] | < 1000 nM |
| C=C[C@@H]1C[C@]1(NC(=O)[C@@H]1C[C@@H](OC(=O)Nc2ccccc2C(=O)OC)CN1C(=O)[C@@H](CC(=O)N1CCCCC1)C(C)(C)C)C(=O)NS(=O)(=O)C1CC1 [Compound 93, methyl 2-(((3R,5S)-1-((S)-2-tert-butyl-4-oxo-4-(piperidin-1-yl)butanoyl)-5-((1R,2S)-1-(cyclo-propylsulfonyl-carbamoyl)-2-vinylcyclopropyl-carbamoyl)pyrrolidin-3-yloxy)carbonyl-amino)benzoate] | < 1000 nM |
| C=C[C@@H]1C[C@]1(NC(=O)[C@@H]1C[C@@H](Oc2cc(-c3ccccc3)nc3cc(OC)ccc23)CN1C(=O)[C@@H](CC(=O)N1CCCCC1)C(C)(C)C)C(=O)NS(=O)(=O)CC [Compound 120, (2S,4R)-1-((S)-2-tert-butyl-4-oxo-4-(piperidin-1-yl)butanoyl)-N-((1R,2S)-1-(ethyl-sulfonylcarbamoyl)-2-vinylcyclopropyl)-4-(7-methoxy-2-phenylquinolin-4-yloxy)pyrrolidine-2-carboxamide] | < 1000 nM |
| C=CC1CC1(NC(=O)[C@@H]1C[C@@H](Oc2cc(-c3ccccc3)nc3cc(OC)ccc23)CN1C(=O)C[C@H](C(=O)NC1CCCC1)C(C)(C)C)C(=O)NS(=O)(=O)C1CC1 (stereo partly shown) [Compound 46] | < 1000 nM |
| C=C[C@@H]1C[C@]1(NC(=O)[C@@H]1C[C@@H](n2nc(-c3ccccc3)c(-c3ccccc3)n2)CN1C(=O)[C@@H](CC(=O)N1CCCCC1)C(C)(C)C)C(=O)NS(=O)(=O)C1CC1 [Compound 139, (2S,4R)-1-((S)-2-tert-butyl-4-oxo-4-(piperidin-1-yl)butanoyl)-N-((1R,2S)-1-(cyclopropyl-sulfonylcarbamoyl)-2-vinylcyclopropyl)-4-(4,5-diphenyl-2H-1,2,3-triazol-2-yl)pyrrolidine-2-carboxamide] | < 1000 nM |
| CC(C)(C)[C@H](CC(=O)N1CCCCC1)C(=O)N1C[C@H](n2cnc3ccccc32)C[C@H]1C(=O)NCC(=O)NS(=O)(=O)C1CC1 [Compound 127, (2S,4R)-4-(1H-benzo[d]imidazol-1-yl)-1-((S)-2-tert-butyl-4-oxo-4-(piperidin-1-yl)butanoyl)-N-(2-(cyclopropane-sulfonamido)-2-oxoethyl)pyr-rolidine-2-carboxamide] | 1000 to 10000 nM |
| C=C[C@@H]1C[C@]1(NC(=O)[C@@H]1C[C@@H](Oc2cc(-c3ccccc3)nc3cc(OC)ccc23)CN1C(=O)[C@@H](CC(=O)N1CC2CC1CO2)C(C)(C)C)C(=O)NS(=O)(=O)C1CC1 (stereo partly drawn) [Compound 174, (2S,4R)-1-((2S)-2-(2-(2-oxa-5-aza-bicyclo[2.2.1]heptan-5-yl)-2-oxoethyl)-3,3-dimethylbutanoyl)-N-((1R,2S)-1-(cyclopropyl-sulfonylcarbamoyl)-2-vinylcyclopropyl)-4-(7-methoxy-2-phenylquinolin-4-yloxy)pyrrolidine-2-carboxamide] | < 1000 nM |
| C=C[C@@H]1C[C@]1(NC(=O)[C@@H]1C[C@@H](NC(=O)n2c3ccccc3c3ccccc32)CN1C(=O)[C@@H](CC(=O)N1CCC(F)(F)C1)C(C)(C)C)C(=O)NS(=O)(=O)C1CC1 [Compound 186, N-((3R,5S)-1-((S)-2-tert-butyl-4-(3,3-difluoropyrrolidin-1-yl)-4-oxobutanoyl)-5-((1R,2S)-1-(cyclopropylsulfonyl-carbamoyl)-2-vinyl-cyclopropyl-carbamoyl)pyrrolidin-3-yl)-9H-carbazole-9-carboxamide] | < 1000 nM |
| C=C[C@@H]1C[C@]1(NC(=O)[C@@H]1C[C@@H](Oc2cc(-c3ccccc3)nc3cc(OC)ccc23)CN1C(=O)[C@@H](CC(=O)N1CCCCC1)C(C)(C)C)C(=O)NS(=O)(=O)c1ccc(Cl)cc1 [Compound 67, (2S,4R)-1-((S)-2-tert-butyl-4-oxo-4-(piperidin-1-yl)butanoyl)-N-((1R,2S)-1-(4-chlorophenyl-sulfonylcarbamoyl)-2-vinylcyclopropyl)-4-(7-methoxy-2-phenylquinolin-4-yloxy)pyrrolidine-2-carboxamide] | < 1000 nM |
| C=C[C@@H]1C[C@]1(NC(=O)[C@@H]1C[C@@H](OC(=O)N2c3ccccc3CCc3ccccc32)CN1C(=O)[C@@H](CC(=O)N1CCCCC1)C(C)(C)C)C(=O)NS(=O)(=O)C1CC1 [Compound 130, (3R,5S)-1-((S)-2-tert-butyl-4-oxo-4-(piperidin-1-yl)butanoyl)-5-((1R,2S)-1-(cyclo-propylsulfonyl-carbamoyl)-2-vinyl-cyclopropylcarbamo-yl)pyrrolidin-3-yl 10,11-dihydro-5H-dibenzo[b,f]azepine-5-carboxylate] | 1000 to 10000 nM |
| C=C[C@@H]1C[C@]1(NC(=O)[C@@H]1C[C@@H](Oc2nccc3c(Cl)c(OC)ccc23)CN1C(=O)[C@@H](CC(=O)N1CCCC(F)(F)C1)C(C)(C)C)C(=O)NS(=O)(=O)C1CC1 [Compound 247, (2S,4R)-1-((S)-2-tert-butyl-4-(3,3-difluoropiperidin-1-yl)-4-oxobutanoyl)-4-(5-chloro-6-methoxyisoquinolin-1-yloxy)-N-((2S)-1-(cyclopropyl-sulfonylcarbamoyl)-2-vinylcyclo-propyl)pyrrolidine-2-carboxamide] | < 1000 nM |
| C=C[C@@H]1C[C@]1(NC(=O)[C@@H]1C[C@@H](Oc2cc(-c3ccccc3)nc3cc(OC)ccc23)CN1C(=O)[C@@H](CC(=O)N1CCCCC1)C(C)(C)C)C(=O)NS(=O)(=O)c1cn(C)cn1 [Compound 73, (2S,4R)-1-((S)-2-tert-butyl-4-oxo-4-(piperidin-1-yl)butanoyl)-4-(7-methoxy-2-phenylquinolin-4-yloxy)-N-((1R,2S)-1-(1-methyl-1H-imidazol-4-ylsulfonylcarbamoyl)-2-vinylcycloprop-yl)pyrrolidine-2-carboxamide] | 1000 to 10000 nM |
| C=C[C@@H]1C[C@]1(NC(=O)[C@@H]1C[C@@H](Oc2cc(-c3ccccn3)nc3c(Cl)c(OC)ccc23)CN1C(=O)[C@@H](CC(=O)N1CCC(C(F)(F)F)CC1)C(C)(C)C)C(=O)NS(=O)(=O)C1CC1 [Compound 208, (2S,4R)-1-((S)-2-tert-butyl-4-oxo-4-(4-(trifluoro-methyl)piperidin-1-yl)butanoyl)-4-(8-chloro-7-methoxy-2-(pyridin-2-yl)quinolin-4-yloxy)-N-((1R)-1-(cyclopropyl-sulfonylcarbamoyl)-2-vinylcyclo-propyl)pyrrolidine-2-carboxamide] | < 1000 nM |
| C=C[C@@H]1C[C@]1(NC(=O)[C@@H]1C[C@@H](NC(=O)c2cc(-c3ccccc3)nc3ccccc23)CN1C(=O)[C@@H](CC(=O)N1CCCC(F)(F)C1)C(C)(C)C)C(=O)NS(=O)(=O)C1CC1 [Compound 202, N-((3R,5S)-1-((S)-2-tert-butyl-4-(3,3-difluoropiperidin-1-yl)-4-oxobutanoyl)-5-((1R,2S)-1-(cyclo-propylsulfonyl-carbamoyl)-2-vinyl-cyclopropyl-carbamoyl)pyrrolidin-3-yl)-2-phenylquinoline-4-carboxamide] | < 1000 nM |
| C=CC1CC1(NC(=O)C1C[C@@H](Oc2cc(-c3ccccc3)nc3cc(OC)ccc23)CN1C(=O)[C@@H](CC(=O)N1CCCCC1)C1CCCCC1)C(=O)NS(=O)(=O)C1CC1 (stereo partly drawn) [Compound 53, (4R)-1-((S)-2-cyclohexyl-4-oxo-4-(piperidin-1-yl)butanoyl)-N-(1-(cyclopropyl-sulfonylcarbamoyl)-2-vinylcyclopropyl)-4-(7-methoxy-2-phenylquinolin-4-yloxy)pyrrolidine-2-carboxamide] | < 1000 nM |
| C=C[C@@H]1C[C@]1(NC(=O)[C@@H]1C[C@@H](OC(=O)Nc2ccc(-c3ccccc3)cc2)CN1C(=O)[C@@H](CC(=O)N1CCCCC1)C(C)(C)C)C(=O)NS(=O)(=O)C1CC1 [Compound 61, (3R,5S)-1-((S)-2-tert-butyl-4-oxo-4-(piperidin-1-yl)butanoyl)-5-((1R,2S)-1-(cyclopropyl-sulfonylcarbamoyl)-2-vinylcyclopropyl-carbamoyl)pyrrolidin-3-yl biphenyl-4-ylcarbamate] | 1000 to 10000 nM |
| C=C[C@@H]1C[C@]1(NC(=O)[C@@H]1C[C@@H](Oc2cc(-c3ccccn3)nc3c4c(ccc23)CCC4)CN1C(=O)[C@@H](CC(=O)N1CCC(C(F)(F)F)CC1)C(C)(C)C)C(=O)NS(=O)(=O)C1CC1 [Compound 237, (2S,4R)-1-((S)-2-tert-butyl-4-oxo-4-(4-(trifluoro-methyl)piperidin-1-yl)butanoyl)-N-((2S)-1-(cyclopropyl-sulfonylcarbamoyl)-2-vinylcyclopropyl)-4-(2-(pyridin-2-yl)-8,9-dihydro-7H-cyclopenta[h]quino-lin-4-yloxy)pyrrolidine-2-carboxamide] | < 1000 nM |
| C=C[C@@H]1C[C@]1(NC(=O)[C@@H]1C[C@@H](Oc2cc(-c3ccccc3)nc3cc(OC)ccc23)CN1C(=O)[C@@H](CC(=O)N1CCCC[C@H]1C(=O)Nc1nccs1)C(C)(C)C)C(=O)NS(=O)(=O)C1CC1 [Compound 211, (2S)-1-((3S)-3-((2S,4R)-2-((1R)-1-(cyclopropyl-sulfonylcarbamoyl)-2-vinylcyclopropyl-carbamoyl)-4-(7-methoxy-2-phenylquinolin-4-yloxy)pyrrolidine-1-carbonyl)-4,4-dimethylpentanoyl)-N-(thiazol-2-yl)piperidine-2-carboxamide] | < 1000 nM |
